Measurements reported in patent US12098145B2 (Libra Therapeutics, Inc., priority 2022, dated 2024).

Key:
TRPML1 = molecular target: T1, TRPML1 (Homo sapiens, UniProt Q9GZU1); assay: Cellular TRPML1 assay (FLIPR, GCaMP6f calcium read-out); type: cell-based; settings: HEKT-REx/GCaMP6f/TRPML1 cells, FLIPR TETRA, kinetic response over 300 seconds; read-out: TRPML1 FLIPR pEC50 (converted)
T1 construct: expressed in transfected cells; host or cells: HEK T-REx cells stably expressing GCaMP6f and TRPML1
How it was run: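 HEK T-REx cells stably expressing TRPML1 and GCaMP6f, seeded 24 h before in Optimem + 0.5% FBS. After ~10 min pre-incubation at room temperature, compounds in Ca2+-free Tyrode's buffer were injected on FLIPR Tetra (final DMSO 0.5%). Calcium fluorescence kinetics followed for 300 s.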

TFEB = TFEB translocation assay (TFEB reporter in U2OS cells, imaging); type: cell-based; settings: Homo sapiens; U2OS cell line with TFEB reporter, 2 hours incubation, nucleus to cytoplasm ratio, normalized to Torin-1; read-out: TFEB Translocation pEC50 (converted)
Procedure: Example B: TFEB Translocation Assay
Reporter TFEB: the reporter is fused to a sequence of monomeric red fluorescent protein.
The reporter TFEB have been stably expressed in U2OS cell line and used as read-out.
Experiments were performed in 384 MTP well format. Cells were seeded in 384-w at a density of 4000 cells/well in 20 μl/well complete growth medium without antibiotics. Twenty-four hours later, cells were treated with compounds and incubated for further 2 hours. Then the cells were imaged and assayed for the response to various compounds using the reporter for TFEB expressed in the cells as readout.
The experiments were performed in a 384-well format according to the following procedure: • 24 h after seeding, cell culture medium was carefully removed and replaced with 20 μl of Opti-MEM (30′ incubation at 37° C. before compound addition) • Then, cells were incubated with compounds diluted in Opti-MEM+0.015% Tween 80 at the desired concentration, with the reference molecule (agonist) Torin-1 at a top concentration of 1 μM (max signal), and with the other reference molecule (agonist) MLSA-5 at top concentration of 20 μM for 2 hours at 37° C. and 5% CO2. The final percentage of DMSO was 0.5% in all the conditions. • Staining of the nuclei was obtained by incubating the cells with 24 μM/well of Hoechst 3342 in standard Tyrode's buffer for 15 min at RT • Then the cells were fixed with PFA 4% for 30 min at RT • After three washes with standard Tyrode's buffer, samples were acquired by recording two fluorescence emission channels (DS-red and blue) at 20× magnification and with at least 3 fields of view per well in an Operetta CLS microscope (PerkinElmer). • Image analysis was performed by using Harmony software (PerkinElmer). The image analysis involved the following steps: flat-field illumination correction, nuclei segmentation, cytoplasm segmentation and calculation of intensity fluorescence in the cytosol and nuclei compartments. Measurements of signal intensity ratio (nucleus to cytoplasm) was used to obtain information on the effects of compounds on the TFEB translocation. • Data from image analysis measurements were finally loaded and analyzed for normalization and fitting procedures in Genedata Screener© software. Data Analysis
Feature: Mean translocation ratio (mean/well)
Data normalization: Stimulator—Neutral control
The GeneData Screener method we have used, normalizes the median of the Stimulator control wells (Torin-1) to 100% and the median of the Neutral control wells (DMSO) to 0% Activity[%]=100*(x−<Min>)/(<“Max”>−<Min>)

T1 sequence (Q9GZU1 whole entry): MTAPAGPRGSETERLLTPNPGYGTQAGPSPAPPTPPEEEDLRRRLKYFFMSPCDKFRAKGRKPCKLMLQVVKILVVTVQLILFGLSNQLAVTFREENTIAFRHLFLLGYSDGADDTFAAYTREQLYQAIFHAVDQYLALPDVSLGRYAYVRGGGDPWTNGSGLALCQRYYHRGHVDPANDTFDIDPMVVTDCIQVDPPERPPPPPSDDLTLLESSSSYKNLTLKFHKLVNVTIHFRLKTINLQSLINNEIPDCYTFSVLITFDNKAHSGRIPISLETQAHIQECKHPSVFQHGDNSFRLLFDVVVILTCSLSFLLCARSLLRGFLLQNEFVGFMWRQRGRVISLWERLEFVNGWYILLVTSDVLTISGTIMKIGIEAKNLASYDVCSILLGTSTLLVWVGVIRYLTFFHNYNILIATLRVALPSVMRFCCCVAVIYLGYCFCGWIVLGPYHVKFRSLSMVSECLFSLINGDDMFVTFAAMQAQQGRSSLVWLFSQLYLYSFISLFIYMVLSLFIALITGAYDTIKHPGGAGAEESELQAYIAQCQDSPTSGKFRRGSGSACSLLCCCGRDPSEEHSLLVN

SMILES | EC50 (TRPML1) [nM] | EC50 (TFEB) [nM]
O=C(Nc1ccc(OC2CCCC2(F)F)c(F)c1)c1nc(N2CCC3(CCOC3)C2)oc1CC(F)(F)F (stereo not shown) [Example 13, N-(4-((2,2-difluorocyclopentyl)oxy)-3-fluorophenyl)-2-(2-oxa-7-azaspiro[4.4]nonan-7-yl)-5-(2,2,2-trifluoroethyl)oxazole-4-carboxamide] | 1000 to 10000 | 1000 to 10000
O=C(Nc1ccc(OC2CCCC2(F)F)c(F)c1)c1nc(N2CCC3(CCC3)C2)oc1CC(F)(F)F (stereo not shown) [Example 15, N-(4-((2,2-difluorocyclopentyl)oxy)-3-fluorophenyl)-2-(6-azaspiro[3.4]octan-6-yl)-5-(2,2,2-trifluoroethyl)oxazole-4-carboxamide] | 10 to 1000 | 10 to 1000
O=C(Nc1ccc(OC2CCCC2(F)F)c(F)c1)c1nc(N2CC3(C2)CC(F)(F)C3)oc1CC(F)(F)F (stereo not shown) [Example 17, 2-(6,6-difluoro-2-azaspiro[3.3]heptan-2-yl)-N-(4-((2,2-difluorocyclopentyl)oxy)-3-fluorophenyl)-5-(2,2,2-trifluoroethyl)oxazole-4-carboxamide] | 10 to 1000 | 10 to 1000
O=C(Nc1ccc(OC2CCCC2(F)F)c(F)c1)c1nc(N2CCC3(COC3)C2)oc1CC(F)(F)F (stereo not shown) [Example 19, N-{4-[(2,2-difluorocyclopentyl)oxy]-3-fluorophenyl}-2-{2-oxa-6-azaspiro[3.4]octan-6-yl}-5-(2,2,2-trifluoroethyl)oxazole-4-carboxamide] | 10 to 1000 | 10 to 1000
CC1(C)CN(c2nc(C(=O)Nc3ccc(OC4CCCC4(F)F)c(F)c3)c(CC(F)(F)F)o2)C1 (stereo not shown) [Example 20, N-(4-((2,2-difluorocyclopentyl)oxy)-3-fluorophenyl)-2-(3,3-dimethylazetidin-1-yl)-5-(2,2,2-trifluoroethyl)oxazole-4-carboxamide] | 10 to 1000 | 10 to 1000
O=C(Nc1ccc(OC2CCCC2(F)F)c(F)c1)c1nc(N2CCC3(CC3)C2)oc1CC(F)(F)F (stereo not shown) [Example 21, N-(4-((2,2-difluorocyclopentyl)oxy)-3-fluorophenyl)-2-(5-azaspiro[2.4]heptan-5-yl)-5-(2,2,2-trifluoroethyl)oxazole-4-carboxamide] | 10 to 1000 | 10 to 1000
O=C(Nc1ccc(N2CCCCC2)c(F)c1)c1nc(N2CCC3(CCOC3)C2)oc1CC(F)(F)F (stereo not shown) [Example 31, N-(3-fluoro-4-(piperidin-1-yl)phenyl)-2-(2-oxa-7-azaspiro[4.4]nonan-7-yl)-5-(2,2,2-trifluoroethyl)oxazole-4-carboxamide] | 1000 to 10000 | 1000 to 10000
O=C(Nc1ccc(N2CCCCC2)c(F)c1)c1nc(N2CCC3(COC3)C2)oc1CC(F)(F)F [Example 33, N-(3-fluoro-4-(piperidin-1-yl)phenyl)-2-(2-oxa-6-azaspiro[3.4]octan-6-yl)-5-(2,2,2-trifluoroethyl)oxazole-4-carboxamide] | 10 to 1000 | 1000 to 10000
O=C(Nc1ccc(OC2CCCC2)c(F)c1)c1nc(N2CC3(C2)CC(F)(F)C3)oc1CC(F)(F)F [Example 48, N-[4-(cyclopentyloxy)-3-fluorophenyl]-2-{6,6-difluoro-2-azaspiro[3.3]heptan-2-yl}-5-(2,2,2-trifluoroethyl)oxazole-4-carboxamide] | 1000 to 10000 | 10 to 1000
CC1CCCN1c1nc(C(=O)Nc2ccc(OC3CCCC3)c(F)c2)c(CC(F)(F)F)o1 (stereo not shown) [Example 54, N-(4-(cyclopentyloxy)-3-fluorophenyl)-2-(2-methylpyrrolidin-1-yl)-5-(2,2,2-trifluoroethyl)oxazole-4-carboxamide] | 1000 to 10000 | 10000 to 100000
O=C(Nc1ccc(OC2CCCC2)c(F)c1)c1nc(N2CCC3(COC3)C2)oc1CC(F)(F)F [Example 64, N-(4-(cyclopentyloxy)-3-fluorophenyl)-2-(2-oxa-6-azaspiro[3.4]octan-6-yl)-5-(2,2,2-trifluoroethyl)oxazole-4-carboxamide] | 1000 to 10000 | 1000 to 10000
O=C(Nc1ccc(OC2CCCCC2(F)F)c(F)c1)c1nc(N2CCC3(COC3)C2)oc1CC(F)(F)F (stereo not shown) [Example 68, N-(4-((2,2-difluorocyclohexyl)oxy)-3-fluorophenyl)-2-(2-oxa-6-azaspiro[3.4]octan-6-yl)-5-(2,2,2-trifluoroethyl)oxazole-4-carboxamide] | 10 to 1000 | 10 to 1000

The next lines start with results.

EC50 (TRPML1) [nM] | SMILES | EC50 (TFEB) [nM]
10 to 1000 | O=C(Nc1ccc(OC2CCCC2(F)F)c(F)c1)c1nc(N2CCCC2)oc1CC(F)(F)F (stereo not shown) [Example 22, N-{4-[(2,2-difluorocyclopentyl)oxy]-3-fluorophenyl}-2-(pyrrolidin-1-yl)-5-(2,2,2-trifluoroethyl)oxazole-4-carboxamide] | 10 to 1000
1000 to 10000 | O=C(Nc1ccc(N2CCCCC2)c(F)c1)c1nc(N2CCC3(C2)CC(F)(F)C3)oc1CC(F)(F)F [Example 28, 2-(2,2-difluoro-6-azaspiro[3.4]octan-6-yl)-N-(3-fluoro-4-(piperidin-1-yl)phenyl)-5-(2,2,2-trifluoroethyl)oxazole-4-carboxamide] | 1000 to 10000
1000 to 10000 | O=C(Nc1ccc(N2CCCCC2)c(F)c1)c1nc(N2CC3(C2)CC(F)(F)C3)oc1CC(F)(F)F [Example 30, 2-{6,6-difluoro-2-azaspiro[3.3]heptan-2-yl}-N-[3-fluoro-4-(piperidin-1-yl)phenyl]-5-(2,2,2-trifluoroethyl)oxazole-4-carboxamide] | 1000 to 10000
1000 to 10000 | O=C(Nc1ccc(N2CCCCC2)c(F)c1)c1nc(N2CCCC2)oc1CC(F)(F)F [Example 32, N-(3-fluoro-4-(piperidin-1-yl)phenyl)-2-(pyrrolidin-1-yl)-5-(2,2,2-trifluoroethyl)oxazole-4-carboxamide] | 1000 to 10000
10 to 1000 | O=C(Nc1cc(F)c(OC2CC3C[C@H]3C2)c(F)c1)c1nc(N2CC3CCOC3C2)oc1CC(F)(F)F (stereo partly drawn) [Example 36, N-(4-{cis-bicyclo[3.1.0]hexan-3-yloxy}-3,5-difluorophenyl)-2-{hexahydro-5H-furo[2,3-c]pyrrol-5-yl}-5-(2,2,2-trifluoroethyl)oxazole-4-carboxamide] | 10 to 1000
10 to 1000 | O=C(Nc1cc(F)c(OC2CC3C[C@H]3C2)c(F)c1)c1nc(N2CCC3(CC3)C2)oc1CC(F)(F)F (stereo partly shown) [Example 38] | 10 to 1000
10 to 1000 | O=C(Nc1cc(F)c(O[C@@H]2C[C@@H]3C[C@@H]3C2)c(F)c1)c1nc(N2CCCC2)oc1CC(F)(F)F [Example 39, N-(4-(cis-bicyclo[3.1.0]hexan-3-yloxy)-3,5-difluorophenyl)-2-(pyrrolidin-1-yl)-5-(2,2,2-trifluoroethyl)oxazole-4-carboxamide] | 10 to 1000
1000 to 10000 | O=C(Nc1ccc(OC2CCOC2)c(F)c1)c1nc(N2CCCC2)oc1CC(F)(F)F (stereo not shown) [Example 47, N-[3-fluoro-4-(oxolan-3-yloxy)phenyl]-2-(pyrrolidin-1-yl)-5-(2,2,2-trifluoroethyl)oxazol-4-carboxamide] | 1000 to 10000
1000 to 10000 | CC1CCC(Oc2ccc(NC(=O)c3nc(N4CCCC4)oc3CC(F)(F)F)cc2F)C1 (stereo not shown) [Example 50, N-(3-fluoro-4-((3-methylcyclopentyl)oxy)phenyl)-2-(pyrrolidin-1-yl)-5-(2,2,2-trifluoroethyl)oxazole-4-carboxamide] | 1000 to 10000
1000 to 10000 | CC1(C)CCCC1Oc1ccc(NC(=O)c2nc(N3CCCC3)oc2CC(F)(F)F)cc1F (stereo not shown) [Example 55, N-(4-((2,2-dimethylcyclopentyl)oxy)-3-fluorophenyl)-2-(pyrrolidin-1-yl)-5-(2,2,2-trifluoroethyl)oxazole-4-carboxamide] | 1000 to 10000
10 to 1000 | O=C(Nc1ccc(O[C@@H]2C[C@@H]3C[C@@H]3C2)c(F)c1)c1nc(N2CCC3(COC3)C2)oc1CC(F)(F)F [Example 73, N-(4-{cis-bicyclo[3.1.0]hexan-3-yloxy}-3-fluorophenyl)-2-{2-oxa-6-azaspiro[3.4]octan-6-yl}-5-(2,2,2-trifluoroethyl)oxazole-4-carboxamide] | 10 to 1000
